Data reported in paper PMC5797642 (Frontiers in Molecular Neuroscience, 2018).

Experiments:
Kv12.1 (Elk1) [1] = target: T1, Kv12.1 (Elk1) (Homo sapiens, UniProt Q96L42); assay: whole-cell patch clamp; type: cell-based; conditions: weak inhibitor; 100 mM; n = 9; CHO cells, room temperature
T1 construct: gene KCNH8; full-length channel from pcDNA3.1-IRES-eGFP, transient expression in CHO dhFR- cells
T1 sequence (Q96L42 1-1107): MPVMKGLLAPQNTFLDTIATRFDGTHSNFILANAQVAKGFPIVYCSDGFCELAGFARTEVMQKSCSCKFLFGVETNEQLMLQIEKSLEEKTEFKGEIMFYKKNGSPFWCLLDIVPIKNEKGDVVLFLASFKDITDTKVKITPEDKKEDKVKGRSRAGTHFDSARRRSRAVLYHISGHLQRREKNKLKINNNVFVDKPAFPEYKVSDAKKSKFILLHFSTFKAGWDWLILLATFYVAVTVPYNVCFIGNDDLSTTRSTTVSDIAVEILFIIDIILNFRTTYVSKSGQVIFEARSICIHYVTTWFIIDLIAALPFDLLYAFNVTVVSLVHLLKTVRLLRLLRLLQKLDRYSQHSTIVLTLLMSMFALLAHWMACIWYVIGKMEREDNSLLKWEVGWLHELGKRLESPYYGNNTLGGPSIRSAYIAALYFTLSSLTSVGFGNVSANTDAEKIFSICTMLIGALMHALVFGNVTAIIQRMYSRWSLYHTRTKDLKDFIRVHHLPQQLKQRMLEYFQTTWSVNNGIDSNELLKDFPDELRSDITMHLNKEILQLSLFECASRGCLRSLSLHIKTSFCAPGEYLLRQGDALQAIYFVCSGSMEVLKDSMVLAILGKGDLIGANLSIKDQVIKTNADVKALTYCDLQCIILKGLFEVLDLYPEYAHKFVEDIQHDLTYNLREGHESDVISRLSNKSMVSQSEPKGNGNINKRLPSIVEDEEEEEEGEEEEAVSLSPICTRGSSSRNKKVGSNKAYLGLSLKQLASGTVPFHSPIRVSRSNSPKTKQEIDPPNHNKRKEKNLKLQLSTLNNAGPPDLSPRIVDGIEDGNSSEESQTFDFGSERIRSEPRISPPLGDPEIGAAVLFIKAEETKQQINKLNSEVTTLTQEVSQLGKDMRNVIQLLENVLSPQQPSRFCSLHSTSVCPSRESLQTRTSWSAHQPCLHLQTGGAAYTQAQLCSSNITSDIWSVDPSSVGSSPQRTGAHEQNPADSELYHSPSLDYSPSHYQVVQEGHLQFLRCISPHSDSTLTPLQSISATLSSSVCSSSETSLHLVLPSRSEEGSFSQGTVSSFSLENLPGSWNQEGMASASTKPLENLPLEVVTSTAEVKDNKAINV

Kv12.1 (Elk1) [2] = target: T1, Kv12.1 (Elk1); assay: whole-cell patch clamp, steady-state outward current at […] mV; type: cell-based; conditions: activator, pH 7.4, CHO cells, room temperature

## CC[N+](CC)(CC)CC [TEA, tetraethylammonium]
Kv12.1 (Elk1) [1]
  I100mM TEA/IStart: 0.83 ± 0.01

## Nc1cccnc1 [3-AP, 3-aminopyridine]
Kv12.1 (Elk1) [2]
  % potentiation at 3 mM: ~ 7%
